assay: Thermo Scientific Acclaim RSLC 120 C18, 100 × 2.1 mm, 2.2 µm, 30 °C; A: 90% water + 10% methanol + 0.01% formic acid + 5 mM ammonium formate; B: methanol + 0.01% formic acid + 5 mM ammonium formate; gradient (min/%B) 0.1/1 3/39 14/99.9 16/99.9; details: stereoisomer not certain

SMILES	LC retention time
CC(C)OC(=O)c1cc(C(=O)OC(C)C)cc([N+](=O)[O-])c1	12 min
COc1ccc2[nH]cc(CCN(C)C)c2c1	3.98 min
CCC1(c2ccc(N)cc2)CCC(=O)NC1=O (configuration not stated)	4.99 min
COP(=S)(OC)SCn1nnc2ccccc2c1=O	8.89 min
CSc1nc(N)nc(NC(C)(C)C)n1	8.43 min
CCNP(=S)(OC)OC(C)=CC(=O)OC(C)C (configuration not stated)	9.79 min
CC#CC1(O)CCC2C3CCC4=CC(=O)CCC4=C3C(c3ccc(N(C)C)cc3)CC21C (configuration not stated)	11.1 min
CC(=O)OCC(=O)C12N=C(C)OC1CC1C3CCC4=CC(=O)C=CC4(C)C3C(O)CC12C (configuration not stated)	9.35 min
CCCCNC(=O)NS(=O)(=O)c1ccc(N)cc1	5.36 min
CCOc1ccc(S(=O)(=O)O)c2cccnc12	3.56 min
CCN(CC)CCN1c2ccccc2Sc2ccccc21	7.76 min
CC(C)NCC(O)COc1ccc(CC(N)=O)cc1 (configuration not stated)	3.09 min
CNC(C)Cc1ccccc1OC (configuration not stated)	4.69 min
CC12CCC3c4ccc(O)cc4CCC3C1CCC2=O (configuration not stated)	9.56 min
CC=C1CC(C)C(C)(O)C(=O)OCC2=CCN3CCC(OC1=O)C23 (configuration not stated)	4.62 min
CCCC(C(=O)c1ccc2ccccc2c1)N1CCCC1 (configuration not stated)	7.33 min
CCC(=O)C(CC(C)N(C)C)(c1ccccc1)c1ccccc1 (configuration not stated)	8.04 min
CCC1OC(=O)C(C)C(OC2CC(C)(OC)C(O)C(C)O2)C(C)C(OC2OC(C)CC(N(C)C)C2O)C(C)(O)CC(C)C(=NOCOCCOC)C(C)C(O)C1(C)O (configuration not stated)	9.23 min
COc1ccc2c(c1)N(CC(C)CN(C)C)c1ccccc1S2 (configuration not stated)	8.14 min
COc1cc(NC(C)CCCN)c2ncccc2c1 (configuration not stated)	6.82 min
CCCc1nn(C)c2c(=O)[nH]c(-c3cc(S(=O)(=O)N4CCNCC4)ccc3OCC)nc12	7.35 min
C1COC(NC(C2CC2)C2CC2)=N1	4.4 min
NCC1(CC(=O)O)CCCCC1	3.78 min

SMILES	LC retention time
COc1ccc(CC(C)N)cc1OC (configuration not stated)	3.94 min
CCC1(c2cccc(O)c2)CCCCN(C)C1 (configuration not stated)	4.74 min
NC(N)=Nc1nc(CSCCC(N)=NS(N)(=O)=O)cs1	3.24 min
CC(C)NCC(O)COc1cccc2ccccc12 (configuration not stated)	6.59 min
CCOC(=O)NCCOc1ccc(Oc2ccccc2)cc1	10.6 min
CCOc1cc(OP(=S)(OC)OC)nc(CC)n1	11 min
c1ccc2c(c1)Cc1ccccc1N1CCNCC21 (configuration not stated)	6.86 min
CCCCCn1cc(C(=O)NC(C(N)=O)C(C)(C)C)c2ccccc21 (configuration not stated)	11.1 min
CCOC(=O)C1(c2ccccc2)CCN(C)CC1	5.28 min
CCN(CC)CCOC(=O)c1ccc(N)cc1	3.21 min
CNC(=O)Nc1nc2ccccc2s1	7.13 min
CN(C)CCc1c[nH]c2ccc(Cn3cncn3)cc12	3.49 min
CC(C)c1cc(Oc2ccccc2)cc(C(C)C)c1NC(=S)NC(C)(C)C	12.9 min
CCOc1nc2cccc(C(=O)OC(C)OC(=O)OC3CCCCC3)c2n1Cc1ccc(-c2ccccc2-c2nn[nH]n2)cc1 (configuration not stated)	12.2 min
CCOP(=S)(OCC)SCCS(=O)(=O)CC	8.02 min
CN(C)CCCN1c2ccccc2Sc2cccnc21	7.21 min
CCCCCCOC(=O)NC(=N)c1ccc(NCc2nc3cc(C(=O)N(CCC(=O)OCC)c4ccccn4)ccc3n2C)cc1	9.29 min
COc1ccc2c(c1)N(CC(C)CN(C)C)c1ccccc1S2=O (configuration not stated)	5.98 min
CCCCC(CC)CN1C(=O)C2C3C=CC(C3)C2C1=O (configuration not stated)	11.6 min
Cc1cc2c(OCC(O)CNC(C)C)cccc2[nH]1 (configuration not stated)	4.44 min
CNCC(O)c1cccc(O)c1 (configuration not stated)	1.93 min
CCCSc1cc(OC)c(CCN)cc1OC	6.98 min
CN1CCC(=C2c3ccccc3CCc3sccc32)CC1	7.86 min

SMILES	LC retention time
C#CCNC(C)Cc1ccccc1 (configuration not stated)	4.66 min
CC(=O)c1cc2cccc(OCC(O)CNC(C)C)c2o1 (configuration not stated)	4.93 min
CCOP(=S)(OCC)Oc1ccc(=O)n(-c2ccccc2)n1	9.79 min
CC(C)(C)C(O)C(Oc1ccc(-c2ccccc2)cc1)n1cncn1 (configuration not stated)	11.3 min
CCSc1cc(OC)c(CCN)cc1OC	5.88 min
COc1ccc(C(=O)c2c(C)n(CCN3CCOCC3)c3ccccc23)cc1	9.55 min
CCOC(=O)CSc1nc(C(C)(C)C)nn1C(=O)N(C)C	6.38 min
CCN(Cc1ccncc1)C(=O)C(CO)c1ccccc1 (configuration not stated)	6.03 min
CCOc1cc(NC(C)=O)ccc1C(=O)OC	6.63 min
c1cc2c(cc1CN1CCNCC1)OCO2	4.22 min
COc1ccc2c3c1OC1C(OC4OC(C(=O)O)C(O)C(O)C4O)C=CC4C(C2)NCCC341 (configuration not stated)	2.48 min
CCCCCCCCc1ccc(OCCO)cc1	12.4 min
CC(CC(c1ccccc1)c1ccccc1)NC(C)(C)C (configuration not stated)	7.91 min
CNC(C)Cc1ccc(O)c(O)c1 (configuration not stated)	2.59 min
Nc1ccc(S(=O)(=O)Nc2cnc3ccccc3n2)cc1	5.81 min
Cc1cccc(N(C)C(=S)Oc2ccc3ccccc3c2)c1	12.2 min
CNCCN1C(=O)C(OC(C)=O)C(c2ccc(OC)cc2)Sc2ccccc21 (configuration not stated)	7.21 min
c1cnc2cc3c(cc2n1)C1CNCC3C1	3.63 min
O=C(O)CCCCC1SCC2NC(=O)NC21 (configuration not stated)	4.44 min
Cc1c(C(=O)c2cccc3ccccc23)c2cccc3c2n1C(CN1CCOCC1)CO3 (configuration not stated)	10.9 min
COC(=O)c1ccc(C)cc1C1=NC(C)(C(C)C)C(=O)N1 (configuration not stated)	7.16 min
Cc1cccc(CC(C)N)c1 (configuration not stated)	5.17 min
CCCCCn1cc(C(=O)c2ccc(OC)cc2)c2ccccc21	11.8 min

SMILES	LC retention time
CCCCn1cc(C(=O)c2cccc3ccccc23)c2cccc(O)c21	11.2 min
N#CC(CCN1CCC(C(N)=O)(N2CCCCC2)CC1)(c1ccccc1)c1ccccc1	8.19 min
CC1=C(C(=O)O)N2C(=O)C(NC(=O)C(N)c3ccccc3)C2SC1 (configuration not stated)	4.08 min
c1ccc(CN2CCNCC2)cc1	4.23 min
CCOc1ccccc1OS(=O)(=O)NC(=O)Nc1nc(OC)cc(OC)n1	9.32 min
COCCOc1c(OC)cc(Cc2cnc(N)nc2N)cc1OC	4.24 min
CCC(=O)C1C(=O)CC(C(=O)O)CC1=O (configuration not stated)	5.63 min
C=C1CC(=CC)C(=O)OC2CC[N+]3([O-])CC=C(COC(=O)C1(C)O)C23 (configuration not stated)	4.5 min
CCOC(=O)CC(SP(=S)(OC)OC)C(=O)OCC (configuration not stated)	9.59 min
CC=CC(=O)N(CC)C(CC)C(=O)N(C)C (configuration not stated)	6.13 min
CCCNCC(O)COc1ccccc1C(=O)CCc1ccccc1 (configuration not stated)	7.81 min
NC(=O)N1c2ccccc2CC(O)c2ccccc21 (configuration not stated)	5.94 min
CCNc1nc(NC(C)(C)C)nc(SC)n1	10.2 min
CCC1CN2CCC3(O)C(=Nc4cccc(OC)c43)C2CC1C(=COC)C(=O)OC (configuration not stated)	5.95 min
CN(C)c1ccccc1	6.26 min
CCC(C)C1OC2(C=CC1C)CC1CC(CC=C(C)C(OC3CC(OC)C(OC4CC(OC)C(NC)C(C)O4)C(C)O3)C(C)C=CC=C3COC4C(O)C(C)=CC(C(=O)O1)C34O)O2 (configuration not stated)	12.4 min
CCN(CC)c1nc(C)cc(OP(=S)(OC)OC)n1	11.3 min
CC(=O)C1CCC2C3CCC4=CC(=O)CCC4(C)C3CCC12C (configuration not stated)	11.2 min
COc1ccc2cc(C(C)C(=O)O)ccc2c1 (configuration not stated)	8.99 min
CNC(=O)Oc1ccc2c(c1)C1(C)CCN(C)C1N2C (configuration not stated)	3.89 min
CON=C1CC2(CC3CC(CC=C(C)CC(C)C=CC=C4COC5C(O)C(C)=CC(C(=O)O3)C45O)O2)OC(C(C)=CC(C)C)C1C (configuration not stated)	13.8 min
CN1CCC23c4c5ccc(O)c4OC2CCCC3C1C5 (configuration not stated)	3.84 min
Cc1ccc(N(CC2=NCCN2)c2cccc(O)c2)cc1	5.86 min

SMILES	LC retention time
COc1ccc(CNC(=O)c2cc([N+](=O)[O-])ccc2NC(C)CO)cc1OC (configuration not stated)	7.8 min
CSc1ccc(CC(C)N)cc1 (configuration not stated)	5.24 min
CCSC(=O)N1CCCCCC1	9.89 min
CCC=CCC1=C(C)C(OC(=O)C2C(C=C(C)C)C2(C)C)CC1=O (configuration not stated)	13.3 min
COP(=S)(OC)SCOC(C)=O	7.16 min
CCOc1ccccc1OC(c1ccccc1)C1CNCCO1 (configuration not stated)	7.28 min
CCCCNC(=O)NS(=O)(=O)c1ccc(C)cc1	7.68 min
CCOC(=O)C1C(OC(=O)c2ccccc2)CC2CCC1N2C (configuration not stated)	5.46 min
CCOS(=O)(=O)O	1.58 min
COC(=O)C1=COC(C)C2CN3CCc4c([nH]c5ccccc45)C3CC12 (configuration not stated)	6.66 min
CC(CN1c2ccccc2Sc2ccc(S(=O)(=O)N(C)C)cc21)N(C)C (configuration not stated)	7.01 min
CCC(C)Nc1c([N+](=O)[O-])cc(C(C)(C)C)cc1[N+](=O)[O-] (configuration not stated)	13 min
CNC(=O)Oc1cccc(C)c1	6.59 min
CN(C)CCN(Cc1ccccc1)c1ccccn1	5.86 min
CCCCCCn1cc(C(=O)c2cccc3ccccc23)cc1-c1ccccc1	13.3 min
COc1ccc(OC)c(CCN)c1	4.43 min
c1coc(-c2nc3ccccc3[nH]2)c1	6.48 min
CN1CCN(C(c2ccccc2)c2ccccc2)CC1	6.94 min
COc1ncnc(NS(=O)(=O)c2ccc(N)cc2)c1OC	4.75 min
COC(C)C(O)(C(=O)OCC1=CC[N+]2([O-])CCC(O)C12)C(C)C (configuration not stated)	3.49 min

Reference: the RepoRT retention time repository (doi:10.1016/j.jhazmat.2019.121712)
